EC50 data for 22 compounds are collected here from patent US20260365646A1, “AKT1 MODULATORS” (Alterome Therapeutics, Inc., priority 2022, published 2026).

Each structure is given as a SMILES string.

For the first test, the target named is T1, full length AKT E17K (Homo sapiens, UniProt P31749, E17K).
T1 construct: host or cells: HEK-293 (ATCC CRL-1573)
T1 sequence (P31749 whole entry E17K): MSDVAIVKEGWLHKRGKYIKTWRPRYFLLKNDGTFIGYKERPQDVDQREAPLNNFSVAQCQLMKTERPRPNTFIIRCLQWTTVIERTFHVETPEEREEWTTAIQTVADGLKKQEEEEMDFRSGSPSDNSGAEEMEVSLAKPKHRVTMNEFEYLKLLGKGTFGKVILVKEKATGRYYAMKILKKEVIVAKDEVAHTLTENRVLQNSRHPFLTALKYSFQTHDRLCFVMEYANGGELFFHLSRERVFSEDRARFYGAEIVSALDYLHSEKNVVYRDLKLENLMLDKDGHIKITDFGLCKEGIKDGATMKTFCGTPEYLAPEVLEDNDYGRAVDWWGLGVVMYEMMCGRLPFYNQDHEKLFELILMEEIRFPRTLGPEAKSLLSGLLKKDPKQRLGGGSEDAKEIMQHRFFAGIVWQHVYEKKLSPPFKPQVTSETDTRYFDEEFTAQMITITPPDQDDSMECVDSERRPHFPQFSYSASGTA
The test can be described thus: NanoBRET Target Engagement (TE) Intracellular Kinase Assay. It is filed as cell-based.
Conditions: not given
An excerpt:
The NanoBRET™ Target Engagement (TE) Intracellular Kinase Assays are based on the NanoBRET™ System (Promega Corporation), an energy transfer technique designed to measure molecular proximity in living cells. The NanoBRET™ TE Assays measure the apparent affinity of test compounds by competitive displacement of the NanoBRET™ tracer compound, which is a cell permeable molecule engineered to be reversibly bound to a NanoLuc® luciferase-kinase fusion expressed in cells. For compound screening, when a test compound binds to the selected kinase, the BRET signal is attenuated. […] All cells were evaluated for viability prior to transfection and optimization of the transfection was done prior to experimentation. […] Following transfection, cells were washed and resuspended in Opti-MEM. NanoBRET assays were performed in white, 384-well plates (Corning) at a density of 2×10^5 cells/well. All example compounds were prepared as concentrated stock solutions in DMSO (Sigma-Aldrich). Compounds are dissolved in DMSO to make 10 mM stock solution. […] A Labcyte ECHO 550 compound dispenser was used to facilitate compound transfer directly to cells. Cells were equilibrated for 2 hr with energy transfer probes and example compound prior to BRET measurements. […] For target engagement analysis, the energy transfer probes were added to the cells at concentrations optimized for the target in question (AKT E17K). Following compound incubation, NanoBRET NanoGlo Substrate (Promega Cat #Ni57D) and Extracellular Nanoluc Inhibitor (Promega Cat #N235C) was added according to the manufacturer's recommended protocol, and luminescence was measured on Envision Reader (Perkin Elmer) Multimode Luminometer equipped with 450 nm BPfilter (donor) and 600 nm LPfilter (acceptor), using 0.5 s integration time. Milli-BRET units (mBU) are calculated by multiplying the raw BRET values by 1000. Apparent tracer affinity values (EC50) were determined using the sigmoidal dose-response (variable slope). Competitive displacement data were then plotted and data were fit to determine the EC50 value for each example compound.
For orientation: BRET reads energy transfer from a luciferase to a nearby fluorophore.
Take `CCSc1c(N(CC)C2CCN(Cc3ccc(-n4c(-c5cccnc5N)nc5ccc(-c6ccccc6)nc54)cc3)CC2)c(=O)c1=O` [Example 93, 3-((1-(4-(2-(2-aminopyridin-3-yl)-5-phenyl-3H-imidazo[4,5-b]pyridin-3-yl)benzyl)piperidin-4-yl)(ethyl)amino)-4-(ethylthio)cyclobut-3-ene-1,2-dione]: the EC50 (commonly the concentration at which the effect is half-maximal) lay within 15 to 60 nM. In the case of `Nc1ncccc1-c1nc2ccc(-c3ccccc3)nc2n1-c1ccc(CNc2c(O)c(=O)c2=O)cc1` [Example 5, 3-((4-(2-(2-Aminopyridin-3-yl)-5-phenyl-3H-imidazo[4,5-b]pyridin-3-yl)benzyl)amino)-4-hydroxycyclobut-3-ene-1,2-dione], the EC50 is over 600 nM. Same read-out and setting: the value for `CCSc1c(N2CCC3(CC2)CN(Cc2ccc(-n4c(-c5cccnc5N)nc5ccc(-c6ccccc6)nc54)cc2)C3)c(=O)c1=O` [Example 61, 3-(2-(4-(2-(2-Aminopyridin-3-yl)-5-phenyl-3H-imidazo[4,5-b]pyridin-3-yl)benzyl)-2,7-diazaspiro[3.5]nonan-7-yl)-4-(ethylthio)cyclobut-3-ene-1,2-dione] was 15 to 60 nM; that for `Nc1ncccc1-c1nc2ccc(-c3ccccc3)nc2n1-c1ccc(CN2CCC(Nc3c(S)c(=O)c3=O)CC2)cc1` [Example 44, 3-((1-(4-(2-(2-aminopyridin-3-yl)-5-phenyl-3H-imidazo[4,5-b]pyridin-3-yl)benzyl)piperidin-4-yl)amino)-4-mercaptocyclobut-3-ene-1,2-dione] was 60 to 600 nM. Still for that read-out and setting: to `COc1c(N2C3CCC2CN(Cc2ccc(-n4c(-c5cccnc5N)nc5ccc(-c6ccccc6)nc54)cc2)C3)c(=O)c1=O` [Example 72, 3-(3-(4-(2-(2-aminopyridin-3-yl)-5-phenyl-3H-imidazo[4,5-b]pyridin-3-yl)benzyl)-3,8-diazabicyclo[3.2.1]octan-8-yl)-4-methoxycyclobut-3-ene-1,2-dione] belongs 60 to 600 nM. Same read-out and setting: to `COc1c(NC2CCN(Cc3ccc(-n4c(-c5cccnc5N)nc5cccnc54)cc3)CC2)c(=O)c1=O` [Example 3, 3-((1-(4-(2-(2-Aminopyridin-3-yl)-3H-imidazo[4,5-b]pyridin-3-yl)benzyl)piperidin-4-yl)amino)-4-methoxycyclobut-3-ene-1,2-dione] belongs 15 to 60 nM. In turn, `COc1c(N2[C@@H](C)CN(Cc3ccc(-n4c(-c5cccnc5N)nc5ccc(-c6ccccc6)nc54)cc3)C[C@@H]2C)c(=O)c1=O` [Example 70, 3-((2S,6S)-4-(4-(2-(2-aminopyridin-3-yl)-5-phenyl-3H-imidazo[4,5-b]pyridin-3-yl)benzyl)-2,6-dimethylpiperazin-1-yl)-4-methoxycyclobut-3-ene-1,2-dione] gave an EC50 of 60 to 600 nM. On the same count and under the same terms, to `COc1c(N2CCN(Cc3ccc(-n4c(-c5cccnc5N)nc5ccc(-c6ccccc6)nc54)cc3)CC2)c(=O)c1=O` [Example 21, 3-(4-(4-(2-(2-Aminopyridin-3-yl)-5-phenyl-3H-imidazo[4,5-b]pyridin-3-yl)benzyl)piperazin-1-yl)-4-methoxycyclobut-3-ene-1,2-dione] belongs 15 to 60 nM. Regarding `COc1c(N2CCCC3(CCN(Cc4ccc(-n5c(-c6cccnc6N)nc6ccc(-c7ccccc7)nc65)cc4)C3)C2)c(=O)c1=O` (stereo not shown) [Example 58, 3-(2-(4-(2-(2-Aminopyridin-3-yl)-5-phenyl-3H-imidazo[4,5-b]pyridin-3-yl)benzyl)-2,7-diazaspiro[4.5]decan-7-yl)-4-methoxycyclobut-3-ene-1,2-dione], the EC50 lay within 15 to 60 nM.

As for `COc1c(N[C@H]2CCCN(Cc3ccc(-n4c(-c5cccnc5N)nc5ccc(-c6ccccc6)nc54)cc3)C2)c(=O)c1=O` [Example 29, (S)-3-((1-(4-(2-(2-Aminopyridin-3-yl)-5-phenyl-3H-imidazo[4,5-b]pyridin-3-yl)benzyl)piperidin-3-yl)amino)-4-methoxycyclobut-3-ene-1,2-dione], the EC50 fell in the range of 60 to 600 nM.

In turn, `Nc1ncccc1-c1nc2ccc(-c3ccccc3)nc2n1-c1ccc(CN2CCC(N3CCCSc4c3c(=O)c4=O)CC2)cc1` [Example 85, 6-(1-(4-(2-(2-aminopyridin-3-yl)-5-phenyl-3H-imidazo[4,5-b]pyridin-3-yl)benzyl)piperidin-4-yl)-2-thia-6-azabicyclo[5.2.0]non-1(7)-ene-8,9-dione] returned an EC50 of 60 to 600 nM. Still for that read-out and setting: to `COc1c(N2CCC3(CCN(Cc4ccc(-n5c(-c6cccnc6N)nc6ccc(-c7ccccc7)nc65)cc4)C3)CC2)c(=O)c1=O` [Example 57, 3-(2-(4-(2-(2-Aminopyridin-3-yl)-5-phenyl-3H-imidazo[4,5-b]pyridin-3-yl)benzyl)-2,8-diazaspiro[4.5]decan-8-yl)-4-methoxycyclobut-3-ene-1,2-dione] belongs 15 to 60 nM.

In turn, `COc1c(NCc2ccc(-n3c(-c4cccnc4N)nc4cccnc43)cc2)c(=O)c1=O` [Example 2, 3-((4-(2-(2-Aminopyridin-3-yl)-3H-imidazo[4,5-b]pyridin-3-yl)benzyl)amino)-4-methoxycyclobut-3-ene-1,2-dione] registered an EC50 of over 600 nM.

Staying with this test, now noted: read-out: NanoBRET AKT1E17K EC50; HEK-293 cells transfected with NanoLuc-AKT E17K; competitive displacement of NanoBRET tracer; 2 hr equilibration; 10-point 3-fold dilution.
As for `CSc1c(N2CCC3(CC2)CN(Cc2ccc(-n4c(-c5cccnc5N)nc5ccc(-c6ccccc6)nc54)cc2)C3)c(=O)c1=O` [Example 64, 3-(2-(4-(2-(2-aminopyridin-3-yl)-5-phenyl-3H-imidazo[4,5-b]pyridin-3-yl)benzyl)-2,7-diazaspiro[3.5]nonan-7-yl)-4-(methylthio)cyclobut-3-ene-1,2-dione], the EC50 is under 15 nM. On the same count and under the same terms, to `COc1c(N(C2CC2)C2CCN(Cc3ccc(-n4c(-c5cccnc5N)nc5ccc(-c6ccccc6)nc54)cc3)CC2)c(=O)c1=O` [Example 94, 3-((1-(4-(2-(2-aminopyridin-3-yl)-5-phenyl-3H-imidazo[4,5-b]pyridin-3-yl)benzyl)piperidin-4-yl)(cyclopropyl)amino)-4-methoxycyclobut-3-ene-1,2-dione] belongs under 15 nM; to `CCOc1c(N2CC3(CN(Cc4ccc(-n5c(-c6cccnc6N)nc6ccc(-c7ccccc7)nc65)cc4)C3)C2)c(=O)c1=O` [Example 40, 3-(6-(4-(2-(2-Aminopyridin-3-yl)-5-phenyl-3H-imidazo[4,5-b]pyridin-3-yl)benzyl)-2,6-diazaspiro[3.3]heptan-2-yl)-4-ethoxycyclobut-3-ene-1,2-dione], under 15 nM.

With `COc1c(N(C)C2CCN(Cc3ccc(-n4c(-c5cccnc5N)nc5ccc(-c6ccccc6)nc54)cc3)CC2)c(=O)c1=O` [Example 27, 3-((1-(4-(2-(2-aminopyridin-3-yl)-5-phenyl-3H-imidazo[4,5-b]pyridin-3-yl)benzyl)piperidin-4-yl)(methyl)amino)-4-methoxycyclobut-3-ene-1,2-dione], the EC50 is under 15 nM. Same read-out and setting: the value for `CCSc1c(N(C)N2CCN(Cc3ccc(-n4c(-c5cccnc5N)nc5ccc(-c6ccccc6)nc54)cc3)CC2)c(=O)c1=O` [Example 97, 3-((4-(4-(2-(2-aminopyridin-3-yl)-5-phenyl-3H-imidazo[4,5-b]pyridin-3-yl)benzyl)piperazin-1-yl)(methyl)amino)-4-(ethylthio)cyclobut-3-ene-1,2-dione] was under 15 nM.

Regarding `COc1c(N2CC3CCC(C2)N3Cc2ccc(-n3c(-c4cccnc4N)nc4ccc(-c5ccccc5)nc43)cc2)c(=O)c1=O` [Example 71, 3-(8-(4-(2-(2-aminopyridin-3-yl)-5-phenyl-3H-imidazo[4,5-b]pyridin-3-yl)benzyl)-3,8-diazabicyclo[3.2.1]octan-3-yl)-4-methoxycyclobut-3-ene-1,2-dione], the EC50 is under 15 nM.

In the case of `COc1c(N2CC[C@@]3(CCN(Cc4ccc(-n5c(-c6cccnc6N)nc6ccc(-c7ccccc7)nc65)cc4)C3)C2)c(=O)c1=O` [Example 62, (R)-3-(7-(4-(2-(2-Aminopyridin-3-yl)-5-phenyl-3H-imidazo[4,5-b]pyridin-3-yl)benzyl)-2,7-diazaspiro[4.4]nonan-2-yl)-4-methoxycyclobut-3-ene-1,2-dione], the EC50 was under 15 nM. Same read-out and setting: the value for `COc1c(N2CC3CCC2CN3Cc2ccc(-n3c(-c4cccnc4N)nc4ccc(-c5ccccc5)nc43)cc2)c(=O)c1=O` (stereo not shown) [Example 63, 3-(5-(4-(2-(2-aminopyridin-3-yl)-5-phenyl-3H-imidazo[4,5-b]pyridin-3-yl)benzyl)-2,5-diazabicyclo[2.2.2]octan-2-yl)-4-methoxycyclobut-3-ene-1,2-dione] was under 15 nM; that for `COc1c(N(CCO)C2CCN(Cc3ccc(-n4c(-c5cccnc5N)nc5ccc(-c6ccccc6)nc54)cc3)CC2)c(=O)c1=O` [Example 48, 3-((1-(4-(2-(2-Aminopyridin-3-yl)-5-phenyl-3H-imidazo[4,5-b]pyridin-3-yl)benzyl)piperidin-4-yl)(2-hydroxyethyl)amino)-4-methoxycyclobut-3-ene-1,2-dione] was under 15 nM.
